# Measured values from ChEMBL document CHEMBL1125432, “Generation of N-methyl-D-aspartate agonist and competitive antagonist pharmacophore models. Design and synthesis of phosphonoalkyl-substituted tetrahydroisoquinolines as novel antagonists” (J Med Chem, 1992).
# Target: Glutamate NMDA receptor
# Test: Ability to displace [3H]CPP from NMDA receptor in rat brain membrane
# Type: cell membranes
row,Structure (SMILES),IC50 [µM]
1,O=C(O)CNCc1ccccc1CP(=O)(O)O,> 100
2,NC(C(=O)O)c1cccc(CCP(=O)(O)O)c1 (configuration not stated),> 100
3,NC(Cc1cccc(CCP(=O)(O)O)c1)C(=O)O (configuration not stated),> 100
4,O=C(O)C1CN(C2CCC(P(=O)(O)O)C2)CCN1 (configuration not stated),1.6
5,NC(Cc1cccc(CP(=O)(O)O)c1)C(=O)O (configuration not stated),2.8
6,O=C(O)C1Cc2cc(CP(=O)(O)O)ccc2CN1 (configuration not stated),4.08
7,C/C(=C\C(N)C(=O)O)CP(=O)(O)O (configuration not stated) [CGP-37849],0.035
8,NC(C[S+]([O-])CP(=O)(O)O)C(=O)O (configuration not stated),0.14
9,NC(C(=O)O)c1ccc(CP(=O)(O)O)o1 (configuration not stated),5.9
10,O=C(O)Cc1cccnc1C(=O)O,10
11,O=C(O)[C@H]1CN(C(c2ccccc2)P(=O)(O)O)CCN1 (some centres not stated),5.8
12,NC(C(=O)O)c1ccc(CCP(=O)(O)O)cc1 (configuration not stated),> 100
13,O=C(O)C1CC(CP(=O)(O)O)c2ccccc2N1 (configuration not stated),0.85
14,NC(C(=O)O)C1CCC(CP(=O)(O)O)CC1 (configuration not stated),13
15,NC(C(=O)O)c1ccc(CCCP(=O)(O)O)cc1 (configuration not stated),> 100
16,O=C(O)C1Cc2c(CCP(=O)(O)O)cccc2CN1 (configuration not stated),0.27
17,O=C(O)CCCN1CCN[C@@H](C(=O)O)C1,0.79
18,O=C(O)C1Cc2c(cccc2CP(=O)(O)O)CN1 (configuration not stated),1.95
19,NC(C(=O)O)c1ccc(CP(=O)(O)O)s1 (configuration not stated),0.66
20,NC(Cc1ccc(CP(=O)(O)O)cc1)C(=O)O (configuration not stated),> 100
21,Cc1cc(CP(=O)(O)O)cc(C(=O)O)n1,10
22,O=C(O)C1CN(Cc2cccc(P(=O)(O)O)c2)CCN1 (configuration not stated),83

row,Structure (SMILES),IC50 [µM]
1,O=C(O)[C@@H]1C[C@H](CP(=O)(O)O)CCN1 [SELFOTEL],0.054
2,NC(C(=O)O)c1ccc(CP(=O)(O)O)c2ccccc12 (configuration not stated),74
3,NC(C(=O)O)c1ccc(CP(=O)(O)O)cc1Br (configuration not stated),24
4,Cc1cc(C(N)C(=O)O)c(C)cc1CP(=O)(O)O (configuration not stated),21
5,O=C(O)C1CC(CCP(=O)(O)O)C2CCCCC2N1 (configuration not stated),100
6,NC(C/C=C/P(=O)(O)O)C(=O)O (configuration not stated),> 10
7,NC(Cc1ccc(P(=O)(O)O)cc1)C(=O)O (configuration not stated),> 100
8,NC(C#CP(=O)(O)O)C(=O)O (configuration not stated),0.45
9,NC(C(=O)O)c1cc(=O)[nH]o1 (configuration not stated),10
10,O=C(O)C1NCCc2ccc(P(=O)(O)O)cc21 (configuration not stated),2.7
11,NC(Cc1ccccc1CP(=O)(O)O)C(=O)O (configuration not stated),8.4
12,O=C(O)CNCc1cccc(P(=O)(O)O)c1,> 100
13,NC(CCCC(=O)O)C(=O)O (configuration not stated),13
14,O=C(O)C1CN(CCCP(=O)(O)O)CCN1 (configuration not stated),0.082
15,NC(C(=O)O)c1ccc(CP(=O)(O)O)cc1 (configuration not stated),0.99
16,O=P(O)(O)CCCN1CCNCC1,> 100
17,NC(Cc1cccc(C(Br)P(=O)(O)O)c1)C(=O)O (configuration not stated),50
18,O=C(O)CNCc1cccc(CP(=O)(O)O)c1,2.2
19,O=C(O)C1Cc2c(cccc2P(=O)(O)O)CN1 (configuration not stated),0.82
20,O=C(O)C1CC(CP(=O)(O)O)C2CCCCC2N1 (configuration not stated),9.2
21,NC(Cc1ccccc1P(=O)(O)O)C(=O)O (configuration not stated),> 100

# Target: T1, Glutamate NMDA receptor (Rattus norvegicus) (UniProt P35439+Q00959+Q00960+Q00961+Q62645+Q8VHN2+Q9R1M7)
# Test: Ability to displace [3H]CPP from NMDA receptor in rat brain membrane was evaluated at 10e-4 M
# Type: cell membranes
row,Structure (SMILES),inhibition [%]
1,NC(C(=O)O)c1cccc(CCP(=O)(O)O)c1 (configuration not stated),35
2,O=C(O)C1Cc2ccc(P(=O)(O)O)cc2CN1 (configuration not stated),0
3,O=C(O)C1Cc2ccc(CP(=O)(O)O)cc2CN1 (configuration not stated),0
4,O=C(O)C1Cc2ccc(CCP(=O)(O)O)cc2CN1 (configuration not stated),0
5,NC(Cc1ccccc1P(=O)(O)O)C(=O)O (configuration not stated),3

# Target: T1, Glutamate NMDA receptor (Rattus norvegicus)
# Test: Ability to displace [3H]CPP from N-methyl-D-aspartate glutamate receptor in rat brain membrane was evaluated at 10e-4 M
# Type: cell membranes
row,Structure (SMILES),inhibition [%]
1,O=C(O)C1NCCc2c1cccc2P(=O)(O)O (configuration not stated),0
2,NC(Cc1ccc(CP(=O)(O)O)cc1)C(=O)O (configuration not stated),1
3,NC(Cc1ccc(P(=O)(O)O)cc1)C(=O)O (configuration not stated),10
4,O=C(O)C1NCCc2ccc(CCP(=O)(O)O)cc21 (configuration not stated),22

# Target: Glutamate NMDA receptor
# Test: Compound was evaluated for its ability to displace [3H]Glu/[3H]-AP5 from rat brain membrane
# Type: tissue-based
row,Structure (SMILES),IC50 [µM]
1,C=C(C)[C@@H]1CN[C@@H](C(=O)O)[C@@H]1CC(=O)O,100
2,Cc1o[nH]c(=O)c1C(N)C(=O)O (configuration not stated),110
3,O=C(O)[C@H]1CCN[C@H](C(=O)O)C1,100
4,O=C(O)[C@H]1NCCC[C@H]1C(=O)O,100
5,O=C(O)c1cccnc1C(=O)O [QUINOLINIC ACID],100
6,O=C(O)[C@H]1CCCN[C@@H]1C(=O)O,10

# Target: Glutamate NMDA receptor
# Test: Displacement of [3H]CPP from N-methyl-D-aspartate glutamate receptor in rat brain membrane
# Type: cell membranes
row,Structure (SMILES),IC50 [µM]
1,O=C(O)C1CN(CCCP(=O)(O)O)C(=O)CN1 (configuration not stated),32
2,N[C@@H](CC(=O)O)C(=O)O [ASPARTIC ACID],10
3,O=C(O)C1NCCC2CCC(P(=O)(O)O)CC21 (configuration not stated),5.6
4,NC(Cc1cccc(CP(=O)(O)O)c1)C(=O)O (configuration not stated),3.3
5,NC(CCCP(=O)(O)O)C(=O)O (configuration not stated),0.28
6,NC(CCCCP(=O)(O)O)C(=O)O (configuration not stated),42
7,O=C(O)[C@H]1CN(C(c2ccccc2)P(=O)(O)O)CCN1 (some centres not stated),> 13.3
8,O=C(O)C1CN(Cc2ccccc2P(=O)(O)O)CCN1 (configuration not stated),> 100
9,N[C@H](CC(=O)O)C(=O)O [D-ASPARTATE],10
10,NC(C(=O)O)c1cc(CP(=O)(O)O)cc(-c2ccccc2)c1 (configuration not stated),50
11,O=C(O)CNC/C=C/CP(=O)(O)O,1.2
12,NC(CCCCC(N)C(=O)O)C(=O)O (configuration not stated),> 100
13,NC(C(=O)O)c1cccc(C(=O)O)c1 (configuration not stated),25
14,O=C(O)CCc1cccc2c1CCNC2C(=O)O (configuration not stated),14.5
15,N[C@H](C(=O)O)[C@H]1C[C@H]1C(=O)O,10
16,CC([C@H]1CCN[C@H](C(=O)O)C1)P(=O)(O)O (some centres not stated),0.8
17,N[C@@H](CNCP(=O)(O)O)C(=O)O,4.3
18,N[C@H](C(=O)O)[C@@H]1C[C@@H]1C(=O)O,< 0.1
19,O=C(O)CNCc1ccc(CP(=O)(O)O)cc1,5.2
20,O=C(O)C1NCCc2cc(CP(=O)(O)O)ccc21 (configuration not stated),61
21,NC(CCP(=O)(O)O)C(=O)O (configuration not stated),> 100
22,Cc1c(CP(=O)(O)O)ccnc1C(=O)O,> 100
23,O=C1CN(CCCP(=O)(O)O)CC(C(=O)O)N1 (configuration not stated),30
24,O=C(O)C1CN(Cc2ccccc2CP(=O)(O)O)CCN1 (configuration not stated),> 100
25,NC(CC(=O)NCP(=O)(O)O)C(=O)O (configuration not stated),2.8
26,NC(C(=O)O)c1ccc(P(=O)(O)O)cc1 (configuration not stated),> 100
27,NC(CCCCCP(=O)(O)O)C(=O)O (configuration not stated) [AP-7],0.77
28,N[C@@]1(C(=O)O)CC[C@H](C(=O)O)C1,10
29,O=C(O)C1NCCc2ccc(CP(=O)(O)O)cc21 (configuration not stated),37.2
